Reference: US7799831B2, “Lipophilic diesters of chelating agent for inhibition of enzyme activity” (D-Pharm Ltd., priority 2002, dated 2010)
Values belong to the molecule of their own block, whether it stands above or below them.

Assays:
MMP-9 [1] = target: T1, MMP-9 (Rattus norvegicus, UniProt P50282); test: MMP-9 gelatinase activity by gelatin zymogram of conditioned media from C6 glioma cells (basal, TNFα- or PMA-induced); format: cell-based; conditions: for Effect on MMP-9 activity: C6 glioma cells stimulated with TNFα
Protocol: C6 rat glioma cells (ATCC; CRL-2199) grown on 100 mm petri dishes were detached by trypsinization and cultured to a density of 10^5 cells/well on 24-well plates in DMEM+10% FCS. The TNFα-treated cells which were stimulated to induce gelatinases were incubated, on the next day after plating, for 18 hours in DMEM without serum in the presence of either 20 ng/ml or 40 ng/ml
TNFα (R&D, cat. #410-TRNC). Different concentrations of the tested compound, as indicated, in 0.48% fatty acid free BSA, 0.4% ethanol were added to the cells that were then incubated for a total of 18-24 hours at 37° C. Cells treated with vehicle only served as control group.
Conditioned media (CM) were then collected, centrifuged at 2000 rpm for 5 min., and supernatants were transferred to new tubes. MMP gelatinase activity was determined by using zymogram gels (Invitrogen, cat. #EC6175) which include gelatin as a substrate. Samples were loaded on gels in 62.5 mM Tris-HCl pH 6.8, 10% glycerol, 2% SDS and traces of bromophenol-blue. Gels were run in Tris/glycine-SDS running buffer, washed for 30 min. with renaturing buffer (Invitrogen) and for further 30 min. with developing buffer (Invitrogen). MMP activity was developed overnight at 37° C. with fresh developing buffer. The gels were then stained for one hour with Coomasie Blue (Brilliant Blue R, Sigma, cat. #B-8647) in 40% methanol and 7% acetic acid, and destained with 30% methanol/10% acetic acid. […] Band analysis was determined using the Kodak digital Science™ 1D Image Analysis Software. Treatments were performed in triplicates and were subjected to three separate zymogram gels.
C6 glioma cells were grown and treated as described above in Example 3, except that cells were stimulated with either 20 ng/ml TNFα (R&D, cat. #410-TRNC) or 0.1 μM Phorbol 12-myristate 13-acetate (PMA, Sigma, cat. #P-8139). […]
Assays were performed in triplicates and zymogram analysis was carried out as described above in Example 3. IC50 values for each of the tested DP-BAPTA compounds were calculated.
Target sequence in this assay (P50282 108-708): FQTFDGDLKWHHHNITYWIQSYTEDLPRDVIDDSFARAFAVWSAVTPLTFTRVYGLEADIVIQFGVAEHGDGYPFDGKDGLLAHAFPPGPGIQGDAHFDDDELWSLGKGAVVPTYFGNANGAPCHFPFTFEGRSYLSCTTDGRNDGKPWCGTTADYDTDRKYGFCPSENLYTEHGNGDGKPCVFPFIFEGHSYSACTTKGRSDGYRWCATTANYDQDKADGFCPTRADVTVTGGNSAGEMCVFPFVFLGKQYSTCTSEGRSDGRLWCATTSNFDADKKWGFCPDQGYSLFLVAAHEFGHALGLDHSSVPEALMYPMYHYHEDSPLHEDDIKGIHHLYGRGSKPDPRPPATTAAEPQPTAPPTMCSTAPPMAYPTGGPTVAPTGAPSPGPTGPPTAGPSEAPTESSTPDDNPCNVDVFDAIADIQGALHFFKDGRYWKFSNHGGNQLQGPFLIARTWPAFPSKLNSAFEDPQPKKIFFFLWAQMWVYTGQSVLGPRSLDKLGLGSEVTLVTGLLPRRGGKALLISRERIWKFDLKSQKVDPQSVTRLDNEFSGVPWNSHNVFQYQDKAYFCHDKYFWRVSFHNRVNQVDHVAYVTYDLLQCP

MMP-9 [2] = target: T1, MMP-9; test: MMP-9 zymogram of conditioned media from primary cortical glial cells (basal and TNFα-induced); format: cell-based; design: endogenous in cells; host or cells: primary cortical glial cells from rat embryos; conditions: 25 μM compound
Protocol: Cortical glial cells from rat embryos (day 18 of pregnancy) were seeded on poly-D-lysine coated 24-well plates with MEM medium containing 5% FCS, 5% HS, 2 mM 1-glutamine and 0.6% glucose, at a density of 5×10^4 cells/well. After 4 days in culture, the medium was changed to MEM+10% FCS. When glial cells reached confluence (around 17 days after plating), they were exposed for 24 hours to 10 ng/ml or 20 ng/ml human TNFα in order to induce MMP-9. The induction was performed either in the absence or presence of 25 μM DP-b99 (dilution 1:200 with medium from a stock of 5 mM in sodium citrate buffer) in a serum-free medium containing 5 mg/ml BSA (essentially fatty acid free). Conditioned media (CM) were collected and 12 μl of each of the triplicates was subjected to separate zymogram gels, as described above in Example 3.
A quantitative analysis of the MMP-9 bands, representing the pro- and active forms of the enzyme, was performed on the triplicate zymograms. The results were normalized to percentage of control values (=100%) and are depicted in FIGS. 3B and 3C that represent, respectively, the biologically active- and pro-MMP-9 forms of the enzyme.

MMP-9 [3] = target: T1, MMP-9; test: MMP-9 activity in brain hemisphere lysates after unilateral MCAO (zymogram); format: in vivo; design: each hemisphere of their brains was subjected separately to lysis and extracted for enzymatic activity; from tissue; host or cells: rat brain hemispheres (Sprague-Dawley, MCAO); conditions: SD rats, 2 h MCAO, 5 μg/kg i.p. single dose, sacrificed after 24 hrs
Protocol: Six Sprague-Dawley (SD) rats were subjected to unilateral (right hemisphere) Middle Cerebral Artery Occlusion (MCAO) for 2 hours. 5 μg/kg DP-b99 in 0.02% sodium citrate in saline was i.p. administered to three animals in a single dose, followed by 2 hrs. reperfusion. The other three animals were treated with vehicle instead of DP-b99. A rat that was only operated with no further treatment was used as a sham control.
The seven rats were sacrificed after 24 hrs. and each hemisphere of their brains was subjected separately to lysis and extracted for enzymatic activity. Brains were minced and solubilized in lysis buffer (25 mM Tris-HCl pH 7.5, 1% IGEPAL CA-630—a non-ionic detergent from Sigma, 100 mM NaCl, 0.5 U/ml aprotinin, 0.01% sodium azide) at a final concentration of 400 mg/ml. The preparations were incubated for 24 hrs. at 4° C. before lysates were centrifuged at 14,000 rpm for 15 min. and supernatants were collected.
Protein concentration was determined by the Bradford assay and 40 μg protein from each lysate were loaded on gelatin zymogram gels for determination of MMP-9 levels. Gels were developed for 48 hrs. Quantitative analysis of the gels was performed using the Kodak Digital System and Kodak 1D software as described in Example 3.
Target sequence in this assay (P50282 108-708): as above

calpain = test: Calpain-cleaved spectrin in brain hemispheres after transient MCA occlusion; format: in vivo, rat; conditions: SD rats, 2 h MCAO, 5 μg/kg i.p. at start of reperfusion
Protocol: Transient middle cerebral artery (MCA) occlusion was performed in male Sprague Dawley (SD) rats by applying 4-0 silicone-coated nylon monofilament through external carotid artery. The animals were anesthetized with 4% halothane and maintained at 1.5% halothane in a 1:2 mixture of nitrous oxide and oxygen without tracheotomy and allowed to breathe spontaneously. Via a ventral cutaneous the common, right external and internal carotid arteries (ECA) were exposed. A suture was introduced into a ligated right external carotid artery, in a retrograde fashion towards the carotid bifurcation. It was then directed distally up to the right internal carotid artery to a distance of 20 mm from the carotid bifurcation to […] occlude the origin of the MCA. It was secured with silk ligatures. Two hours after occlusion the monofilament was withdrawn to allow reperfusion and the cutaneous wound was sutured and cleaned. The whole procedure took about 25 min., with rectal temperature maintained throughout at 37° C. […]
Assay for Calpain activity: Each hemisphere was separately lysed by homogenization on ice in 5 ml RIPA buffer (50 mM Tris pH 7.5; 150 mM NaCl; 0.5% DOC; 1% Triton X-100; 0.1% SDS; 1 mM Nappi; 2 mM EDTA) plus protease inhibitors (Bohringer, Manheim, Germany). […] Quantitation of the bands was performed using the Kodak 1D software. […]

MMP-2 = target: T2, MMP-2 (Rattus norvegicus, UniProt P33436); test: MMP-2 activity in brain hemisphere lysates after unilateral MCAO (zymogram); format: in vivo; conditions: SD rats, 2 h MCAO, 5 μg/kg i.p. single dose, sacrificed after 24 hrs
T2 construct: each hemisphere of their brains was subjected separately to lysis and extracted for enzymatic activity; from tissue; host or cells: rat brain hemispheres (Sprague-Dawley, MCAO)
T2 sequence (P33436 110-662): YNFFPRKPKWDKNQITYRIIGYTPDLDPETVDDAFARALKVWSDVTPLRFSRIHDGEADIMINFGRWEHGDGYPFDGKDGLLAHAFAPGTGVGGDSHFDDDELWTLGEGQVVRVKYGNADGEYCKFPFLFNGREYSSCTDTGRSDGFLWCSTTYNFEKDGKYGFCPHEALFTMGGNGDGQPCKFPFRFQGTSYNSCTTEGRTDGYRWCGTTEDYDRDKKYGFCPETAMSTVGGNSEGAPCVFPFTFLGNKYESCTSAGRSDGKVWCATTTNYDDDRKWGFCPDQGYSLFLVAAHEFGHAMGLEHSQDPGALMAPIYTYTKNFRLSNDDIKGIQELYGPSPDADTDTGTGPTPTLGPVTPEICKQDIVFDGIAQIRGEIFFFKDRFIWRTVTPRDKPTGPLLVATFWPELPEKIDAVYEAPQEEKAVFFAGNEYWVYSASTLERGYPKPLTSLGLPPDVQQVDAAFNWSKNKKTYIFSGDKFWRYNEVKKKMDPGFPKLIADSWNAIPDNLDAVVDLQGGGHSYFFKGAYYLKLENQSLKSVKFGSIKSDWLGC

MMP-9 [4] = target: T3, MMP-9 (Homo sapiens, UniProt P14780); test: MMP-9 activity assay (BioTrak) in conditioned media of TNFα-treated A-172 glioma cells; format: cell-based; conditions: A-172 cells, 10 ng/ml TNFα, 20 or 50 μM compound
T3 construct: endogenous in cells; host or cells: A-172 human glioma cells (ATCC CRL-1620)
Protocol: (§1) A-172 human glioma cells (ATCC; CRL-1620) were grown and treated with 10 ng/ml TNFα in the presence of 0, 20 or 50 μM DP-b109 following the procedure as described above in Example 3. Cells treated with vehicle without the TNFα treatment, served as control groups.
(§2) CM from each treatment group was collected and subjected to zymogram gels (see procedure in Example 3), to MMP-9 immunoassay and to MMP-9 activity assay.
MMP-9 activity was assayed using the MMP-9 activity assay system (BioTrak™, Amersham, U.K., Cat. # RPN 2634), which quantifies the amount of the active MMP-9 form (see BioTrak kit instructions).

MMP-9 [5] = test: Total MMP-9 protein immunoassay (Quantikine) in conditioned media of TNFα-treated A-172 glioma cells; format: cell-based, human; conditions: A-172 cells, 10 ng/ml TNFα, 20 or 50 μM compound
Protocol: as §1, §2
The total amount of MMP-9 protein was determined by immunoassay using the Quantikine™ (R&D Systems, U.S.A., Cat # DMP900) kit and following the manufacturer's instructions.

T3 sequence (P14780 107-707 limits assumed): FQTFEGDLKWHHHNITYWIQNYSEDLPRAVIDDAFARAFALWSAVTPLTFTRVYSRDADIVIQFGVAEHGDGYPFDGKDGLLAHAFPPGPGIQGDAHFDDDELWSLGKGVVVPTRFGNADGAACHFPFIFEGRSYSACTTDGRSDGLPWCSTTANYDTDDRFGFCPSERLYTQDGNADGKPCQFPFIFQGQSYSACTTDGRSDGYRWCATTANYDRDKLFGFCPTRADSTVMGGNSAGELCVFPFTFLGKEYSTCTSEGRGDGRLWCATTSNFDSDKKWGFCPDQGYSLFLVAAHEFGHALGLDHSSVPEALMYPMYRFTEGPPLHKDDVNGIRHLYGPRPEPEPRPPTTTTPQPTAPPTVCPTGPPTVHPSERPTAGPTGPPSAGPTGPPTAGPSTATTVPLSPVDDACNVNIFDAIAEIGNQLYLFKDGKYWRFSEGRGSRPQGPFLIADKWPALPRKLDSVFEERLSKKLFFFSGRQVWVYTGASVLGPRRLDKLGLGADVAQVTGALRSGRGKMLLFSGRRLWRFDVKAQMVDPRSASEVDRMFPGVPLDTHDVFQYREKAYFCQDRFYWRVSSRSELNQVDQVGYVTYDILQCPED

Effect on MMP-9 activity (MMP-9 [1]): did not affect the MMP-9 activity
SMILES: O=C(O)CN(CC(=O)O)c1ccccc1OCCOc1ccccc1N(CC(=O)O)CC(=O)O [BAPTA, 1,2-bis(2 aminophenoxy)ethane-N,N,N′,N′-tetraacetic acid]

SMILES: CC(=O)OCOC(=O)CN(CC(=O)OCOC(C)=O)c1ccccc1OCCOc1ccccc1N(CC(=O)OCOC(C)=O)CC(=O)OCOC(C)=O [BAPTA-AM, 1,2-bis(2-aminophenoxy)ethane-N,N,N′,N′-tetra-acetic acid acetoxymethyl ester]
Effect on MMP-9 activity (MMP-9 [1]): increased rather than decreased the MMP-9 activity
Effect on TNFα-induced MMP-9 activity (MMP-9 [1]; C6 glioma cells, 20 ng/ml TNFα, compounds at 1, 5, 10 and 20 μM, zymogram): Increased

SMILES: CCCCCCCCOCCOC(=O)CN(CC(=O)O)c1ccccc1OCCOc1ccccc1N(CC(=O)O)CC(=O)OCCOCCCCCCCC [DP-b99, 1,2-bis(2-aminophenoxy)ethane, N,N′-di(2-octoxyethyl acetate), N,N′-diacetic acid]
Active MMP-9 form, TNFα treated cells (MMP-9 [2]; 10 or 20 ng/ml TNFα): reduced
Pro-MMP-9 form, TNFα treated cells (MMP-9 [2]; 10 or 20 ng/ml TNFα): reduced
Active MMP-9 band, un-stimulated cells (MMP-9 [2]; no TNFα): abolished
Pro-MMP-9 band intensity, un-stimulated cells (MMP-9 [2]; no TNFα): increased the band intensity
MMP-9 activity R/L ratio (injured/intact hemisphere) (MMP-9 [3]): 3.0
Increase in cleaved spectrin over the sham-operated values (calpain): about 50%
Cleaved spectrin (R/L hemisphere) (calpain; sacrificed four hours later, n=2): 1.42 ± 0.08
MMP-2 activity level (MMP-2): unaffected

TNFα-induced increase in active MMP-9 (MMP-9 [4]): reduced to the baseline level
SMILES: CCCCCCCCCCCCCCCCCCOCCOC(=O)CN(CC(=O)O)c1ccccc1OCCOc1ccccc1N(CC(=O)O)CC(=O)OCCOCCCCCCCCCCCCCCCCCC [DP-b109, 1,2-bis(2-aminophenoxy)ethane, N,N′-di(2-octodecyloxyethyl acetate), N,N′-diacetic acid]
Level of total MMP-9 protein in conditioned media (MMP-9 [5]): reduces, in a dose-dependent fashion
